In patent US9284580B2 (priority 2010, dated 2016):
Like-named read-outs stand apart in the source and are kept apart here.

Experiments:
AckKO(pMAD22) = assay: Batch fermentation in serum bottles with a hydrogenase inhibitor; type: cell-based, Clostridium tyrobutyricum; details: hydrogenase inhibitor added to fermentation
C. tyrobutyricum mutants = test system: C. tyrobutyricum mutants
Excerpt: Cell growth was monitored by measuring the optical density at 600 nm (OD600) of the culture broth.

| Molecule | effect on acids and butanol production from glucose (AckKO(pMAD22)) | effect on cell growth (C. tyrobutyricum mutants; 0.5% (v/v) butanol in RCM medium, strains studied) | cell growth (C. tyrobutyricum mutants; 2.0% (v/v) butanol, all strains started to grow after 2 days) | tolerated butanol concentration (C. tyrobutyricum mutants; after adaptation) | tolerated butanol concentration (C. tyrobutyricum mutants; without adaptation) |
| --- | --- | --- | --- | --- | --- |
| Cc1cc2nc3ccc(N(C)C)cc3nc2cc1N.Cl [neutral red] | significantly decreased acids production and enhanced butanol production from glucose |  |  |  |  |
| butanol |  | does not have any apparent effect on cell growth | no significant cell growth was observed for the first 24 hours | up to 2.0 % (v/v) | up to 1.5 % (v/v) |
| C[n+]1ccc(-c2cc[n+](C)cc2)cc1 [methyl viologen] | significantly decreased acids production and enhanced butanol production from glucose |  |  |  |  |
